“And” between values parts separate entries of the source, which are not always exact repeats. Equal entries are not always repeated. Where two headings read alike, the source gives them in different places.
How the values were obtained:
[1] = Single dose plasma pharmacokinetics in CD1 mice; format: in vivo, mouse
Protocol: For single dose pharmacokinetic studies, plasma samples (40 μL) were mixed with 200 μL of a water-methanol (1:9, v/v) containing the internal standard elacridar at 80 ng/mL. After mixing by pipetting and centrifuging for 4 min at 5500 x g, 0.25 μL of the supernatant was injected into LC-MS/MS system. […] Mobile phase A was acetonitrile/water (5:95, v/v) containing 1% formic acid, and mobile phase B was acetonitrile containing 0.1% formic acid. The gradient was initiated with mobile phase B at 10% with a flow rate of 0.4 mL/min, increased to 100% over 0.9 min and then and held for 0.1 min, and returned back to 10% mobile phase B and allowed to equilibrate until 2.2 min. An SCIEX 5000 triple quadrupole mass spectrometer operated in positive electrospray ionization mode was used for the detection of RA475. The lower limit of quantitation (LLOQ) in plasma was 10 ng/mL.
Pharmacokinetic parameters were calculated from mean concentration-time data using non-compartmental methods in Phoenix WinNonlin version 8.3 (Certara, Princeton, NJ). Concentrations after the time 0 sample that were below the LLOQ were imputed with ½ that value (1 ng/mL). Any concentration that was determined to be an outlier by the Grubbs’s outlier test were excluded from analysis. The maximum plasma concentration (Cmax) and time to Cmax (Tmax) were the observed values. The AUClast was calculated using the log-linear trapezoidal method. AUC was extrapolated to infinity (AUCINF) by dividing the last quantifiable concentration by the terminal disposition rate constant (λz). The λz was determined from at least 3 points on the slope of the terminal phase of the concentration-time profile. The terminal half-life (T1/2) was determined by dividing 0.693 by λz. Clearance (Cl) or apparent Cl (Cl/F) was calculated by dividing the dose administered by AUCINF. Volume of distribution (V) or apparent V (V/F) was calculated by dividing Cl or Cl/F by λz. […] The oral and IP bioavailability was calculated as: F(%)=DoseIV×AUCINFPO/DosePO×[…].100%
The Method of Bailer was used to estimate the variance of AUC given the calculated variance of the mean concentration at each time point. A pairwise comparison utilizing Z test was used to determine whether there was a significant difference between RA475 exposures as expressed by AUC last. Additionally, the Up284 exposure was truncated to 8 h and compared to the same route of administration and exposure as RA475. In all cases, p < 0.05 was considered statistically significant.
CD1 (n = 4 per time point and condition; 8 weeks old, 26.8±3g) mice were administered a single dose of RA475, either IV (10 mg/kg), PO (40 mg/kg), or IP (40 mg/kg), and thereafter serial blood plasma samples were analyzed for RA475 levels by LC–MS/MS. The animals were randomly assigned to the treatment groups (S9 Table) and fasted for 4 h before dosing. Eight time points for IV and IP (0.083, 0.25, 0.5, 1, 2, 4, 6, and 8 h) and seven time points for PO (0.25, 0.5, 1, 2, 4, 6, and 8) administration were set for this pharmacokinetic study. Mice were injected IP with 2,2,2-tribromoethanol at the dose of 150 mg/kg prior to drawing the blood in microtainers containing K3EDTA via retro-orbital bleeding. Blood samples were centrifuged 10 min at 3000 rpm. All samples were immediately processed, flash-frozen and stored at -70°C until subsequent analysis. No obvious adverse effects were observed during this PK study. The average RA475 plasma concentrations data for IV, IP, and PO dosed groups (S10–S12 Tables) is graphically presented in Fig 4, and may be compared to published data for Up284 [37]. Pharmacokinetic parameters were calculated from mean concentration-time data using non-compartmental methods in Phoenix WinNonlin version 8.3 (Certara, Princeton, NJ) (S13 Table). Using the Method of Bailer, there was no difference in dose normalized AUClast by any route of administration of RA475.

[2] = Mouse plasma protein binding, equilibrium dialysis; format: in vitro ADME; conditions: pH 7.4, dialysis 5 h
Protocol: The assay was performed in a multiple-use 96-well dialysis unit (HTD96b dialyzer). Each individual well unit consisted of 2 chambers separated by a vertically aligned dialysis membrane of predetermined pore size (MWCO 12–14 kDa). 120 μL of non-diluted plasma spiked with the compound (1 μM, final DMSO concentration 1%) was added to one chamber, and the same volume of PBS buffer pH 7.4 to the other chamber. The HTD96b dialyzer was covered with adhesive sealing film and incubated 5 h at 37°C while shaking at 100 rpm. For sample preparation, an aliquot of the contents of each chamber was mixed with the same volume of the blank opposite matrix. In order to define non-specific loss of the compound during this assay, a standard solution was created by mixing an aliquot of spiked plasma with blank buffer without dialysis. Two aliquots of the standard solution were incubated at 37°C, shaking at 100 rpm for 5 h (recovery samples). The other two aliquots were immediately diluted with acetonitrile and stored at 4°C until analysis (stability samples). All samples were diluted 5-fold with internal standard diluted in 100% methanol with subsequent plasma proteins sedimentation by centrifuging at 6000 rpm for 5 minutes. Supernatants were analyzed using LC-MS/MS. The percentage of plasma protein bound compound, recovery and stability were calculated using following equations. […]

[3] = male, CD1, mouse, plasma, ip, 40 mg/kg, IP 40 mg/Kg
[4] = male, CD1, mouse, plasma, po, 40 mg/kg, PO 40 mg/Kg
[5] = male, CD1, mouse, plasma, IP 40 mg/kg
[6] = male, CD1, mouse, plasma, IV 10 mg/kg
[7] = male, CD1, mouse, plasma, PO 40 mg/kg

Cl.Cl.N#Cc1ccc(/C=C2/C(=O)/C(=C/c3ccc(C#N)cc3)C23CCN(C(=N)N)CC3)cc1 [RA475, 1,3-bis((E)-4-cyanobenzylidene)-2-oxo-7-azaspiro[3.5]nonane-7-carboximidamide dihydrochloride]
concentration at 360 min ([1]; CD1, mouse, plasma, ip, 40 mg/kg, IP 40 mg/Kg, 360 min, read-out: Plasma concentration, Group A-D): 327 ng/mL | bioavailability ([1]; CD1, mouse, plasma, IP 40 mg/kg): 103% | bioavailability ([1]; CD1, mouse, plasma, PO 40 mg/kg): 1.1% | Plasma concentration, Group A-D ([1]; IP 40 mg/Kg, 240 min, 40 mg/kg): 484 ng/mL and 577 ng/mL and 614 ng/mL | Plasma concentration, Group A-D ([1]; IP 40 mg/Kg, 480 min, 40 mg/kg): 118 ng/mL and 174 ng/mL and 125 ng/mL | Plasma concentration, Group A-D ([1]; PO 40 mg/Kg, 30 min, 40 mg/kg): 60 ng/mL and 57 ng/mL and 52 ng/mL | Plasma concentration, Group A-D ([1]; PO 40 mg/Kg, 60 min, 40 mg/kg): 33 ng/mL and 35 ng/mL and 44 ng/mL | Plasma concentration, Mean ([1]; PO 40 mg/Kg, 240 min): BQL | Plasma concentration, Mean ([1]; PO 40 mg/Kg, 360 min): BQL | Plasma concentration, Group A-D ([1]; PO 40 mg/Kg, 360 min, LLOQ 10 ng/mL): BQL | Plasma concentration, Mean ([1]; PO 40 mg/Kg, 480 min): BQL | Plasma concentration, Group A-D ([1]; PO 40 mg/Kg, 480 min, LLOQ 10 ng/mL): BQL | dose-normalized Cmax, fold higher than Up284 ([1]; RA475 vs Up284): 2.3 fold | concentration at 15 min [1, 3]: 11500 ng/mL | concentration at 30 min ([1]; male, CD1, mouse, plasma, ip, 40 mg/kg, IP 40 mg/Kg, 30 min, read-out: Plasma concentration, Mean): 9350 ng/mL | concentration at 60 min ([1]; male, CD1, mouse, plasma, ip, 40 mg/kg, IP 40 mg/Kg, 60 min, read-out: Plasma concentration, Mean): 3580 ng/mL | concentration at 120 min [1, 3]: 969 ng/mL | concentration at 240 min ([1]; male, CD1, mouse, plasma, ip, 40 mg/kg, IP 40 mg/Kg, 240 min, read-out: Plasma concentration, Group A-D): 356 ng/mL | concentration at 240 min ([1]; male, CD1, mouse, plasma, ip, 40 mg/kg, IP 40 mg/Kg, 240 min, read-out: Plasma concentration, Mean): 508 ng/mL | concentration at 360 min ([1]; male, CD1, mouse, plasma, ip, 40 mg/kg, IP 40 mg/Kg, 360 min, read-out: Plasma concentration, Mean): 125 ng/mL | concentration at 480 min ([1]; male, CD1, mouse, plasma, ip, 40 mg/kg, IP 40 mg/Kg, 480 min, read-out: Plasma concentration, Group A-D): 105 ng/mL | concentration at 480 min ([1]; male, CD1, mouse, plasma, ip, 40 mg/kg, IP 40 mg/Kg, 480 min, read-out: Plasma concentration, Mean): 131 ng/mL | concentration at 15 min [1, 4]: 141 ng/mL | concentration at 30 min ([1]; male, CD1, mouse, plasma, po, 40 mg/kg, PO 40 mg/Kg, 30 min, read-out: Plasma concentration, Group A-D): 69 ng/mL | concentration at 30 min ([1]; male, CD1, mouse, plasma, po, 40 mg/kg, PO 40 mg/Kg, 30 min, read-out: Plasma concentration, Mean): 60 ng/mL | concentration at 60 min ([1]; male, CD1, mouse, plasma, po, 40 mg/kg, PO 40 mg/Kg, 60 min, read-out: Plasma concentration, Group A-D): 29 ng/mL | concentration at 60 min ([1]; male, CD1, mouse, plasma, po, 40 mg/kg, PO 40 mg/Kg, 60 min, read-out: Plasma concentration, Mean): 35 ng/mL | concentration at 120 min [1, 4]: 20 ng/mL | concentration at 240 min ([1]; male, CD1, mouse, plasma, po, 40 mg/kg, PO 40 mg/Kg, 240 min, LLOQ 10 ng/mL, read-out: Plasma concentration, Group A-D): 20 ng/mL | AUC(0-t) [1, 5]: 11300 ng·h/mL | Cmax [1, 5]: 11500 ng/mL | Tmax [1, 5]: 15 min | AUC(0-inf) [1, 6]: 2780 ng·h/mL | AUC(0-t) [1, 6]: 2730 ng·h/mL | Cmax [1, 6]: 10500 ng/mL | half-life [1, 6]: 126 min | AUC(0-inf) [1, 7]: 139 ng·h/mL | AUC(0-t) [1, 7]: 118 ng·h/mL | Cmax [1, 7]: 142 ng/mL | Tmax [1, 7]: 15 min | half-life [1, 7]: 96 min | CL/F ([1]; male, CD1, mouse, plasma, PO 40 mg/kg, read-out: Cl or Cl/F (converted)): 289 L/h/kg | Tmax ([1]; mouse, plasma, IV 10 mg/kg, male CD1 mice): 4.98 min | Cl or Cl/F ([1]; plasma, IV 10 mg/kg): 0.216 L/h/kg | V or V/F ([1]; plasma, IV 10 mg/kg): 10.9 L/kg | V or V/F ([1]; plasma, PO 40 mg/kg): 668.1 L/kg | fraction unbound at 5 h, 1 μM [2]: < 0.01
